Laboratory results reported in US20220128542A1, “TREATMENT EFFICIENCY EVALUATION” (TX MEDIC AB, priority 2019, published 2022).

How the values were obtained:
Mouse cortical neurons = experiment: Gene expression array and pathway analysis in cortical neurons (Example 2); assay type: cell-based; conditions: for differentially expressed genes: cortical neuron section (printed motor neurons)
Protocol: (§1) For each cell line, n=8×25 cm^2 culture flasks were set up. Two flasks were harvested for each cell type on the day of treatment (24 hours after seeding). This represents the Day0 time point. From the remaining flasks, three flasks were treated with Control Medium and three were treated with Culture Medium (CM) containing LMW-DS to give a final concentration of 0.01 mg/ml. Cells from the treated flasks were collected after 48 hours. Therefore the collected data represent (a) untreated cells (Day0 Controls and Day2 Controls) and (b) cells treated with LMW-DS for 48 hours (Day2 LMW-DS treated).
(§2) 25 cm^2 flasks were coated by adding 2 ml per flask of a solution of 50 μg/ml poly-d-lysine in Hank's balanced salt solution (HBSS) and incubating overnight at 37° C. in the dark. Flasks were washed with cell culture water and air-dried for 30 min in the dark. Flasks were coated by adding 1 ml per flask of a solution of 25 μg/ml laminin in phosphate-buffered saline (PBS) and incubating for 2 hour at 37° C. in the dark. The laminin flasks were washed with PBS three times before plating cells.
Medium was prepared by adding 10 ml B-27 Serum-Free Supplement and 2.5 ml GlutaMAX™-I Supplement to 500 ml of Neurobasal medium. The medium was pre-warmed to 37° C. Cells from 12 vials were thawed sequentially in a 37° C. water bath for no longer than 2 min and gently transferred into a 15 ml tube. 9 ml of medium was gently added drop-wise to each. The cell suspension was mixed by inverting the tubes carefully twice.
The cells were centrifuged for 5 minutes at 200×g. Supernatant was removed (to the last 0.5 ml) and cells were gently re-suspended by trituration. The cells from the 12 vials were mixed and distributed equally into the previously coated 25 cm^2 flasks (n=8). Cells were incubated at 37° C. with 5% CO2 for 24 hours.
(§3) A fresh 100× LMW-DS stock (1.0 mg/ml) was prepared in sterile DMEM-F12. The concentrated drug stock was sterile filtered and added to the respective culture media (19.6 ml CM and 0.4 ml LMW-DS stock solution). The Control was made using 19.6 ml CM and 0.4 ml of DMEM-F12. LMW-DS and CM were added to the respective flasks (5 ml each) to reach the 0.01 mg/ml concentration of LMW-DS in each dish with a total of 10 ml CM each.
(§4) CM was aspirated into a clean and labelled 15 ml Falcon tube. The flasks (without culture medium) were placed into the −80° C. freezer for 30 minutes. The CM in the Falcon tubes was spun at 3000×g for 5 minutes. Supernatant was removed and the small pellet was re-suspended in 2.5 ml Trizol:Water (4:1) solution at room temperature (RT, ˜22° C.).
(§5) The frozen flasks were removed one-by one from the freezer and the Trizol-Water from the appropriate tubes was moved to the flask. Flasks were left at RT for 5 minutes before the content was aspirated back into the 15 ml Falcon tube (after washing the bottom of the flask with the solution thoroughly). The flasks were inspected under the microscope to ensure full removal of cells. The collected lysates in the 15 ml Falcon tubes were placed into the −80° C. freezer.
(§6) Falcon tubes containing the homogenates were removed from the freezer and stored for 5 minutes at RT to permit the complete dissociation of nucleoprotein complexes.
(§7) Two aliquots of 1 ml lysate were removed from each sample and 200 μl of chloroform was added to each (0.2 ml of chloroform per 1 ml of TRIzol Reagent used during the cell lysis step) and the tube was shaken vigorously. Samples were stored at RT for 2-3 minutes and subsequently centrifuged at 12,000×g for 15 minutes at 4° C.
(§8) The mixture separated into three layers: a lower red phenol-chloroform phase, an interphase and a colorless upper aqueous phase. The RNA remained in the top aqueous phase, DNA in the white middle (interphase) phase and protein in the pink bottom (organic) phase. The top ¾ of the aqueous phase was transferred to a new clean Eppendorf tube.
The RNA was precipitated from the aqueous phase by adding an equal amount of 100% ethanol. […]

Mouse motor neurons = experiment: Gene expression array and pathway/upstream regulator analysis in motor neurons (Example 2); assay type: cell-based; conditions: 0.01 mg/ml
Protocol: as §1, §2
The culture medium was prepared according to Table 5.
Medium (see Table 5) was pre-warmed to 37° C. Cells were thawed in a 37° C. water bath for no longer than 2 min. 9 ml of media was gently added drop-wise. The cell suspension was mixed by inverting the tube carefully twice. The cells were counted with a Cellometer. The cells were centrifuged for 5 minutes at 200×g. Supernatant was removed (to the last 0.5 ml) and cells were gently re-suspended by trituration. The cells from the 8 vials were mixed and distributed equally into the previously coated 25 cm^2 flasks (n=8). Cells were incubated at 37° C. with 5% CO2 for 24 hours before treatment.
as §3, §4, §5, §6, §7, §8
The RNA was precipitated from the aqueous phase by adding an equal amount of 100% ethanol. The precipitated RNA was fixed onto a Spin Cartridge, washed twice and dried. […]

[1] = cortical neurons, 0.01 mg/ml, 48 hours

## sodium salt of dextran sulfate [LMW-DS]
Mouse cortical neurons; D0 control vs D2 LMW-DS treated, 0.01 mg/ml
  differentially expressed genes: 609 genes
Mouse cortical neurons; second comparison, printed as D0 control to D2 LMW-DS treated
  differentially expressed genes: 247 genes
Mouse cortical neurons; [1]
  number of genes: no effect / abolished nutrient effect: 572
  number of genes: no effect / new effect induced by LMW-DS: 19
  number of genes: no effect / total: 591
  number of genes: significant downregulation / abolished nutrient effect: 7
  number of genes: significant downregulation / enhanced response to nutrients: 158
  number of genes: significant downregulation / new effect induced by LMW-DS: 22
  number of genes: significant downregulation / not different from control: 95
  number of genes: significant downregulation / total: 282
  number of genes: significant upregulation / abolished nutrient effect: 33
  number of genes: significant upregulation / enhanced response to nutrients: 43
  number of genes: significant upregulation / new effect induced by LMW-DS: 7
  number of genes: significant upregulation / not different from control: 221
  number of genes: significant upregulation / total: 304
  number of genes: total / abolished nutrient effect: 612
  number of genes: total / enhanced response to nutrients: 612
  number of genes: total / new effect induced by LMW-DS: 48
  number of genes: total / not different from control: 316
  number of genes: total / total: 1177
Mouse motor neurons; 48 hours
  number of genes: no effect / abolished nutrient effect: 177
  number of genes: no effect / new effect induced by LMW-DS: 108
  number of genes: no effect / total: 285
  number of genes: significant downregulation / abolished nutrient effect: 47
  number of genes: significant downregulation / enhanced response to nutrients: 36
  number of genes: significant downregulation / new effect induced by LMW-DS: 375
  number of genes: significant downregulation / not different from control: 104
  number of genes: significant downregulation / total: 562
  number of genes: significant upregulation / abolished nutrient effect: 40
  number of genes: significant upregulation / enhanced response to nutrients: 103
  number of genes: significant upregulation / new effect induced by LMW-DS: 71
  number of genes: significant upregulation / not different from control: 75
  number of genes: significant upregulation / total: 289
  number of genes: total / abolished nutrient effect: 264
  number of genes: total / enhanced response to nutrients: 139
  number of genes: total / new effect induced by LMW-DS: 554
  number of genes: total / not different from control: 179
  number of genes: total / total: 1136
Mouse motor neurons; D0 control vs D2 LMW-DS treated
  differentially expressed genes: 315 genes
Mouse motor neurons; second comparison
  differentially expressed genes: 425 genes
